Test results: patent US8426429B2, “2-amino-quinazoline derivatives useful as inhibitors of β-secretase (BACE)” (Jansssen Pharmaceutica N.V., priority 2004, dated 2013)

Target: T1, β-secretase (BACE) (Homo sapiens, UniProt P56817)
T1 construct: purchased Panvera
Test: BACE FS1 % Inhibition Assay
Type: biochemical
Summary of the method: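 Percent inhibition per compound concentration was referenced to vehicle-treated enzyme and no-enzyme wells. Enzyme at a 4 μg/mL working stock plus compound was mixed for 20 min at room temperature before the FS1 substrate (300 μg/mL working stock) was added for a 1 h room-temperature reaction.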

T1 sequence (P56817 46-501): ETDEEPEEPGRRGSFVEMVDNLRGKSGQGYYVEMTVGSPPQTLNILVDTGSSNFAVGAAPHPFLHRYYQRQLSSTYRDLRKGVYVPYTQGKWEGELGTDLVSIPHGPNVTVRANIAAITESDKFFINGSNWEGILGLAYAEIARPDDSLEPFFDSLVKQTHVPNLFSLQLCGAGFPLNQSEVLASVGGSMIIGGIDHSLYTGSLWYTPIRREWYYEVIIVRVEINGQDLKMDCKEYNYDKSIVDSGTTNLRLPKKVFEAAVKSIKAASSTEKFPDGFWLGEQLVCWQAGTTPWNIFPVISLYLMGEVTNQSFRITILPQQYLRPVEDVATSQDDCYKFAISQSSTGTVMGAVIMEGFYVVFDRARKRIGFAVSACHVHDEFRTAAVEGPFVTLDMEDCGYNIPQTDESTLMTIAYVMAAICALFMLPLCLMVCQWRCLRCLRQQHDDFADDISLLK

| SMILES | % Inhibition (FS) (0.3 μM compound, FS1 substrate) [%] | % Inhibition (FS) (1 μM compound, FS1 substrate) [%] | % Inhibition (FS) (3 μM compound, FS1 substrate) [%] | % Inhibition (FS) (3 μM test compound) [%] | % Inhibition (FS) (10 μM test compound) [%] | % Inhibition (FS) (0.3 μM test compound) [%] | % Inhibition (FS) (1 μM test compound) [%] |
| --- | --- | --- | --- | --- | --- | --- | --- |
| CN(C(=O)c1ccc2c(c1)C(N1Cc3cc(Oc4ccccc4)ccc3N=C1N)CC2)C1CCCCC1 (centres unmarked) [Compound 145] |  |  |  | <30 | 37 |  |  |
| Cc1ccc(-c2ccc3c(c2)CN(CCNC(=O)C2CCCCC2)C(N)=N3)cc1 [Compound 628] |  |  |  | 32 |  | <30 | <30 |
| CC(C)(C)OC(=O)NCC(C1CCCCC1)N1Cc2cc(Oc3ccccc3)ccc2N=C1N (centres unmarked) [Compound 257] |  |  |  | 111 |  | 67 | 105 |
| CCCC(=O)NCCN1Cc2cc(-c3ccccc3F)ccc2N=C1N [Compound 645] |  |  |  | 91 |  | 67 | 57 |
| CCC(c1cccc(C(=O)N(C)C2CCCCC2)c1)N1Cc2cc(-c3ccccc3OC)ccc2N=C1N (centres unmarked) [Compound 395] |  |  |  | 118 |  | 69 | 107 |
| CCCCCCCCCC(=O)NCCN1Cc2cc(Oc3ccccc3)ccc2N=C1N [Compound 142] |  |  |  | <30 | 38 |  |  |
| CS(=O)(=O)Nc1ccccc1-c1ccc2c(c1)CN(CCNC(=O)C1CCCCC1)C(N)=N2 [Compound 539] |  |  |  | <30 |  | <30 | <30 |
| CN(C(=O)c1cccc(CN2Cc3cc(Oc4ccccc4C4CCCC4)ccc3N=C2N)c1)C1CCCCC1 [Compound 512] |  |  |  | 51 |  | <30 | <30 |
| COc1ccccc1-c1ccc2c(c1)CN(CCNC(=O)CCCN)C(N)=N2 [Compound 494] |  |  |  | <30 |  | <30 | <30 |
| CN(C(=O)c1ncoc1CN1Cc2cc(Oc3ccccc3)ccc2N=C1N)C1CCCCC1 [Compound 641] |  |  |  | 48 |  | <30 | <30 |
| CN(C(=O)c1cccc(CN2Cc3cc(Sc4cccc5ccccc45)ccc3N=C2N)c1)C1CCCCC1 [Compound 414] |  |  |  | 27 |  | <30 | <30 |
| NC1=Nc2ccc(Oc3ccccc3)cc2CN1CCNC(=O)C(c1ccccc1)c1ccccc1 [Compound 207] |  |  |  | 108 |  | 48 | 90 |

Other lines, results leading:

| % Inhibition (FS) (0.3 μM compound, FS1 substrate) [%] | % Inhibition (FS) (1 μM compound, FS1 substrate) [%] | % Inhibition (FS) (3 μM compound, FS1 substrate) [%] | % Inhibition (FS) (3 μM test compound) [%] | % Inhibition (FS) (10 μM test compound) [%] | % Inhibition (FS) (0.3 μM test compound) [%] | % Inhibition (FS) (1 μM test compound) [%] | SMILES |
| --- | --- | --- | --- | --- | --- | --- | --- |
| <30 | <30 | <30 |  |  |  |  | CN(C(=O)CCC(C1CCCCC1)N1Cc2cc(Oc3ccccc3)ccc2N=C1N)c1ccc(C(=O)O)cc1 (centres unmarked) [Compound 766] |
| <30 | <30 | 64 |  |  |  |  | COc1ccccc1-c1ccc2c(c1)CN(CCNC(=O)C1CCC(C(F)(F)F)CC1)C(N)=N2 (centres unmarked) [Compound 698] |
| <30 | 72 |  |  |  |  |  | COC1CCCC(C(=O)NCCN2Cc3cc(-c4ccccc4C)ccc3N=C2N)C1 (centres unmarked) [Compound 696] |
| <30 | 71 |  |  |  |  |  | CN(CC(=O)O)C(=O)CCC(C1CCCCC1)N1Cc2cc(Oc3ccccc3)ccc2N=C1N (centres unmarked) [Compound 767] |
| <30 | <30 | <30 |  |  |  |  | CN(C(=O)CCC(C1CCCCC1)N1Cc2cc(Oc3ccccc3)ccc2N=C1N)C1CCC(c2nn[nH]n2)CC1 (centres unmarked) [Compound 770] |
| <30 | <30 | <30 |  |  |  |  | NC1=Nc2ccc(C3=CCCCC3)cc2CN1CCNC(=O)C1CCC(C(F)(F)F)CC1 (centres unmarked) [Compound 704] |
| <30 | <30 | 51 |  |  |  |  | CC(=O)N1CCC(C(=O)NCCN2Cc3cc(-c4ccccc4Cl)ccc3N=C2N)CC1 [Compound 691] |
| 33 | 39 | 72 |  |  |  |  | COc1ccccc1-c1ccc2c(c1)CN([C@@H](CCC(=O)N(C)Cc1cnn(-c3ccccc3)c1)C1CCCCC1)C(N)=N2 [Compound 717] |
